In paper PMC3866151, “Phenylthiophenecarboxamide Antagonists of the Olfactory Receptor Co-Receptor Subunit from a Mosquito” (PLoS ONE, 2013):
Where two headings read alike, the source gives them in different places.

Assays:
Format in all cases: cell-based
Cqui\Orco+Cqui\Or21 [1] = biological target: T1, Cqui\Orco+Cqui\Or21 (Culex quinquefasciatus, UniProt Q309I4); experiment: Agonist activation (concentration-response) of the OR expressed in Xenopus oocytes, two-electrode voltage clamp
Method: (§1) Oocytes were surgically removed from mature Xenopus laevis frogs. Follicle cells were removed by treatment with Collagenase B (Boehringer Mannhem) for 2 hours at room temperature. Capped cRNA encoding each OR subunit was generated using mMessage mMachine kits (Ambion). For heteromeric ORs, 25 ng of cRNA encoding each OR subunit was injected into Stage V-VI Xenopus oocytes. For expression of Orco alone, 50 ng of cRNA was injected. Oocytes were incubated at 18°C in Barth's saline (in mM: 88 NaCl, 1 KCl, 2.4 NaHCO3, 0.3 CaNO3, 0.41 CaCl2, 0.82 MgSO4, 15 HEPES, pH 7.6, and 150 µg/ml ceftazidime) for 2–5 days prior to electrophysiological recording.
(§2) Odorant and Orco ligand induced currents were recorded under two-electrode voltage clamp, using an automated parallel electrophysiology system (OpusExpress 6000A; Molecular Devices). Oocytes were perfused with ND96 (in mM: 96 NaCl, 2 KCl, 1 CaCl2, 1 MgCl2, 5 HEPES, pH 7.5). Orco ligands were prepared as 50 or 100 mM stock solutions in DMSO and then diluted into ND96 on the day of the experiment. Unless otherwise noted, applications were for 60 sec at a flow rate of 1.0 ml/min, with extensive washing in ND96 at 4.6 ml/min between applications. For the concentration-response protocol in Figure 1d , applications were for 20 sec at a flow rate of 1.65 ml/min. Micropipettes were filled with 3 M KCl and had resistances of 0.2–2.0 MΩ. The holding potential was -70 mV. Current responses, filtered (4-pole, Bessel, low pass) at 20 Hz (-3 db) and sampled at 100 Hz, were captured and stored using OpusXpress 1.1 software (Molecular Devices).
(§3) Initial analysis of electrophysiological data was done using Clampfit 9.1 software (Molecular Devices). Curve fitting and statistical analyses were done using Prism 5 (Graphpad). Concentration-response data were fit to the equation: I = Imax/(1+(EC50/X)^n) where I represents the current response at a given concentration of odorant, X; Imax is the maximal response; EC50 is the concentration of agonist yielding a half maximal response; n is the apparent Hill coefficient. Concentration-inhibition data were fit to the equation: I = Imax / (1+ (X/IC50)^n) where I represents the current response at a given concentration of inhibitor, X; Imax is the maximal response in the absence of inhibitor; IC50 is the concentration of inhibitor present that still allows a half maximal response from odorant; n is the apparent Hill coefficient. Statistical significance was assessed using a two-tailed unpaired t test, an F test, or a one-way analysis of variance followed by the Dunnett's post-test, as appropriate.

Cqui\Orco+Cqui\Or21 [2] = biological target: T1, Cqui\Orco+Cqui\Or21; experiment: Antagonism of Orco agonist (OLC12) activation of the OR expressed in Xenopus oocytes, two-electrode voltage clamp; conditions: for Mechanism of inhibition of Orco agonist (OLC12) activation: OLC12 raised from 3 µM to 30 µM; for IC50: read-out: IC50 for inhibition of Cqui\Orco+Cqui\Or21 activation by OLC12; for Inhibition of the OLC12 response compared with OX1a (screen): 100 µM compound; for Inhibition of the OLC12 response compared with OX1a (screen) / Antagonist activity compared with the parent analog or OX1a (second screen): 3 µM OLC12; for Antagonist activity compared with the parent analog or OX1a (second screen): 30 µM compound
Method: as §1, §2
(§4) To screen for antagonist activity, oocytes were exposed to 60 sec applications of OLC12 with 4 min washes between applications (Figures 1B, 3, 4 and 5A,C,E) or 60 sec applications of odorant with 20 min washes between applications (Figures 1C,D and 5B,D,F). Oocytes were then exposed to a 90 sec application of antagonist candidate, immediately followed by a 60 sec co-application of antagonist candidate and OLC12 or odorant. Oocytes were then exposed to a final 60 sec application of OLC12 or odorant. The current response in the presence of antagonist candidate was compared to the preceding responses to OLC12 or odorant alone.
as §3

Cqui\Orco+Cqui\Or21 [3] = biological target: T1, Cqui\Orco+Cqui\Or21; experiment: Inhibition of odorant (3-methylindole) activation of the OR expressed in Xenopus oocytes, two-electrode voltage clamp; conditions: for IC50: read-out: IC50 for inhibition of responses to 3MI; for Mechanism of inhibition of odorant activation: 10 nM, 100 nM, 1 µM 3-methylindole
Method: as §1, §2, §4, §3

[4] = activated by 3 µM OLC12, Xenopus oocytes

T1 sequence (Q309I4 entry or part of it): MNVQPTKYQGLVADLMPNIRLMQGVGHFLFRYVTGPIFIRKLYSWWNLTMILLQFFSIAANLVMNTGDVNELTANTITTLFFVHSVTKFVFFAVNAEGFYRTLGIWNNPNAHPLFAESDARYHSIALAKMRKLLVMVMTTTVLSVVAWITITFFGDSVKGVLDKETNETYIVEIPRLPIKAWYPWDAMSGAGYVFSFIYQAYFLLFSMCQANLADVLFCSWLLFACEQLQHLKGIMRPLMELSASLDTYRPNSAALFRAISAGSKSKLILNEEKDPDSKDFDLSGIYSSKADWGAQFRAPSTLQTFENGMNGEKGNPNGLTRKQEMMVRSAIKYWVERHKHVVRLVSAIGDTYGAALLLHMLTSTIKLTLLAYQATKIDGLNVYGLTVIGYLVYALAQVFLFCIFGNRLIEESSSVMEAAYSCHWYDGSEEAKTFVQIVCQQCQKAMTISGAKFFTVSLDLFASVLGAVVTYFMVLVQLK

Structure (SMILES) | nH (apparent Hill coefficient of concentration-inhibition curve) (Cqui\Orco+Cqui\Or21 [2]; [4]) | IC50 (Cqui\Orco+Cqui\Or21 [2]; [4]) [µM] | Inhibition of the OLC12 response compared with OX1a (screen) (Cqui\Orco+Cqui\Or21 [2]) | also measured
Cc1c[nH]c2ccccc12 [Compound 3MI, 3-methylindole] | – | – | – | EC50 (Cqui\Orco+Cqui\Or21 [1]; 3MI alone, read-out: EC50 for activation of Cqui\Orco+Cqui\Or21 by 3MI): 0.032 ± 0.007 µM; EC50 (Cqui\Orco+Cqui\Or21 [1]; in presence of 50 µM OX1a, read-out: EC50 for 3MI activation of Cqui\Orco+Cqui\Or21): 0.037 ± 0.007 µM
CCn1c(SCC(=O)Nc2ccc(C(C)C)cc2)nnc1-c1ccncc1 [OLC12, 2-((4-ethyl-5-(4-pyridinyl)-4H-1,2,4-triazol-3-yl)sulfanyl)-N-(4-isopropylphenyl)-acetamide] | – | – | – | nH for OLC12 activation of Cqui\Orco+Cqui\Or21 (Cqui\Orco+Cqui\Or21 [1]): 1.42 ± 0.32; EC50 (Cqui\Orco+Cqui\Or21 [1]; read-out: EC50 for OLC12 activation of Cqui\Orco+Cqui\Or21): 6.6 ± 1.4 µM
CCc1ccc(NC(=O)c2cccs2)cc1 [OX1a, N-(4-ethylphenyl)-2-thiophenecarboxamide] | 1.0 ± 0.1 | 51 ± 6 | – | Mechanism of inhibition of Orco agonist (OLC12) activation (Cqui\Orco+Cqui\Or21 [2]): competitive antagonist; IC50 (Cqui\Orco+Cqui\Or21 [3]; 10 nM 3MI): 47 ± 5 µM; Mechanism of inhibition of odorant activation (Cqui\Orco+Cqui\Or21 [3]): non-competitive mechanism; IC50 (Cqui\Orco+Cqui\Or21 [3]; 100 nM 3MI): 42 ± 7 µM; IC50 (Cqui\Orco+Cqui\Or21 [3]; 1 µM 3MI): 50 ± 4 µM; Effect on maximal response to 3-methylindole (Cqui\Orco+Cqui\Or21 [3]; 50 µM OX1a co-applied): significantly reduced
Cc1ccc(NC(=O)c2cccs2)cc1 [OX1b, N-(4-methylphenyl)-2-thiophenecarboxamide] | – | – | significantly improved antagonist activity | –
Cc1cccc(NC(=O)c2cccs2)c1 [OX1c, N-(3-methylphenyl)-2-thiophenecarboxamide] | – | – | significantly improved antagonist activity | –
O=C(Nc1ccc(Br)cc1)c1cccs1 [OX1d, N-(4-bromophenyl)-2-thiophenecarboxamide] | – | – | failed to significantly improve antagonist activity | –
COc1ccc(NC(=O)c2cccs2)cc1 [OX1e, N-(4-methoxyphenyl)-2-thiophenecarboxamide] | – | – | significantly improved antagonist activity | –
O=C(Nc1cccc(Br)c1)c1cccs1 [OX1f, N-(3-bromophenyl)-2-thiophenecarboxamide] | – | – | significant improvement | –
O=C(Nc1cccc(Cl)c1)c1cccs1 [OX1g, N-(3-cholorphenyl)-2-thiophenecarboxamide] | 1.0 ± 0.1 | 13 ± 1 | significant improvement | –
COc1cccc(NC(=O)c2cccs2)c1 [OX1h, N-(3-methoxyphenyl)-2-thiophenecarboxamide] | – | – | significantly improved antagonist activity | –
CC(=O)c1cccc(NC(=O)c2cccs2)c1 [OX1i, N-(3-acetylphenyl)-2-thiophenecarboxamide] | 1.3 ± 0.1 | 14 ± 1 | significantly improved antagonist activity | –
CCc1ccccc1NC(=O)c1cccs1 [OX1j, N-(2-ethylphenyl)-2-thiophenecarboxamide] | 0.9 ± 0.1 | 5.4 ± 0.4 | significantly improved antagonist activity | –
Cc1cccc(NC(=O)c2cccs2)c1C [OX1k, N-(2,3-dimethylphenyl)-2-thiophenecarboxamide] | 0.8 ± 0.1 | 1.7 ± 0.2 | significantly improved antagonist activity | –
Cc1cc(C)c(NC(=O)c2cccs2)c(C)c1 [OX1l, N-mesityl-2-thiophenecarboxamide] | 1.5 ± 0.1 | 3.8 ± 0.3 | significantly improved antagonist activity | Mechanism of inhibition of Orco agonist (OLC12) activation (Cqui\Orco+Cqui\Or21 [2]): competitive mechanism; IC50 (Cqui\Orco+Cqui\Or21 [2]; activated by 10 µM OLC12): 8.3 ± 0.5 µM; IC50 (Cqui\Orco+Cqui\Or21 [2]; activated by 30 µM OLC12): 24 ± 3 µM; IC50 (Cqui\Orco+Cqui\Or21 [3]; 10 nM 3MI): 17 ± 1 µM; Mechanism of inhibition of odorant activation (Cqui\Orco+Cqui\Or21 [3]): non-competitive mechanism; IC50 (Cqui\Orco+Cqui\Or21 [3]; 100 nM 3MI): 16 ± 1 µM; IC50 (Cqui\Orco+Cqui\Or21 [3]; 1 µM 3MI): 19 ± 2 µM
Cc1cccc(NC(=O)c2sccc2Cl)c1 [OX1m, 3-chloro-N-(3-methylphenyl)-2-thiophenecarboxamide] | – | – | improved antagonist activity | –
CCN(C(=O)c1cccs1)c1ccccc1 [OX1n, N-ethyl-N-phenyl-2-thiophenecarboxamide] | – | – | improved antagonist activity | –
Cc1ccc(NC(=O)c2sccc2Cl)c(C)c1 [OX1o, 3-chloro-N-(2,4-dimethylphenyl)-2-thiophenecarboxamide] | 1.1 ± 0.1 | 5.5 ± 0.7 | – | Antagonist activity compared with the parent analog or OX1a (second screen) (Cqui\Orco+Cqui\Or21 [2]): significant loss of antagonist activity
Cc1cccc(C)c1NC(=O)c1sccc1Cl [OX1p, 3-chloro-N-(2,6-dimethylphenyl)-2-thiophenecarboxamide] | 1.2 ± 0.1 | 7.2 ± 0.6 | – | Antagonist activity compared with the parent analog or OX1a (second screen) (Cqui\Orco+Cqui\Or21 [2]): significant loss of antagonist activity
O=C(Nc1cccc(Cl)c1)c1sccc1Cl [OX1q, 3-chloro-N-(3-chlorophenyl)-2-thiophenecarboxamide] | 0.9 ± 0.1 | 7.8 ± 0.9 | – | Antagonist activity compared with the parent analog or OX1a (second screen) (Cqui\Orco+Cqui\Or21 [2]): well tolerated
CCC(=O)c1ccc(NC(=O)c2cccs2)cc1 [OX1r, N-(4-propionylphenyl)-2-thiophenecarboxamide] | – | – | – | Antagonist activity compared with the parent analog or OX1a (second screen) (Cqui\Orco+Cqui\Or21 [2]): significant loss of antagonist activity
CCCC(=O)c1ccc(NC(=O)c2cccs2)cc1 [OX1s, N-(4-butyrylphenyl)-2-thiophenecarboxamide] | – | – | – | Antagonist activity compared with the parent analog or OX1a (second screen) (Cqui\Orco+Cqui\Or21 [2]): significant loss of antagonist activity
O=C(NC1CCCCC1)c1cccs1 [OX2, N-cyclohexyl-2-thiophenecarboxamide] | – | – | failed to significantly improve antagonist activity | –
Cc1ccc(CNC(=O)c2cccs2)cc1 [OX3a, N-(4-methylbenzyl)-2-thiophenecarboxamide] | 1.0 ± 0.1 | 1.7 ± 0.2 | improved antagonist activity | Mechanism of inhibition of Orco agonist (OLC12) activation (Cqui\Orco+Cqui\Or21 [2]): competitive mechanism; IC50 (Cqui\Orco+Cqui\Or21 [2]; activated by 10 µM OLC12): 12 ± 1 µM; IC50 (Cqui\Orco+Cqui\Or21 [2]; activated by 30 µM OLC12): 28 ± 2 µM; IC50 (Cqui\Orco+Cqui\Or21 [3]; 10 nM 3MI): 2.6 ± 0.3 µM; Mechanism of inhibition of odorant activation (Cqui\Orco+Cqui\Or21 [3]): non-competitive mechanism; IC50 (Cqui\Orco+Cqui\Or21 [3]; 100 nM 3MI): 2.3 ± 0.2 µM; IC50 (Cqui\Orco+Cqui\Or21 [3]; 1 µM 3MI): 1.9 ± 0.1 µM
O=C(NCc1ccccc1)c1cccs1 [OX3b, N-benzyl-2-thiophenecarboxamide] | 1.1 ± 0.1 | 5.1 ± 0.5 | – | Antagonist activity compared with the parent analog or OX1a (second screen) (Cqui\Orco+Cqui\Or21 [2]): well tolerated
CCc1ccccc1NC(=O)C=Cc1cccs1 [OX4, N-(2-ethylphenyl)-3-(2-thienyl)-2-propenamide] | 0.9 ± 0.1 | 2.1 ± 0.3 | – | Antagonist activity compared with the parent analog or OX1a (second screen) (Cqui\Orco+Cqui\Or21 [2]): well tolerated; Mechanism of inhibition of Orco agonist (OLC12) activation (Cqui\Orco+Cqui\Or21 [2]): competitive mechanism; IC50 (Cqui\Orco+Cqui\Or21 [2]; activated by 10 µM OLC12): 8.8 ± 1.2 µM; IC50 (Cqui\Orco+Cqui\Or21 [2]; activated by 30 µM OLC12): 73 ± 5 µM; IC50 (Cqui\Orco+Cqui\Or21 [3]; 10 nM 3MI): 3.4 ± 0.6 µM; Mechanism of inhibition of odorant activation (Cqui\Orco+Cqui\Or21 [3]): non-competitive mechanism; IC50 (Cqui\Orco+Cqui\Or21 [3]; 100 nM 3MI): 2.7 ± 0.4 µM; IC50 (Cqui\Orco+Cqui\Or21 [3]; 1 µM 3MI): 2.5 ± 0.3 µM
